The nature of this data set: Stability of Latanoprost in PEA III formulations and compatibility with film casting, evaluated by 1H NMR. In kind it is physicochemical. As for the experimental part:
For film casting, solutions were prepared in a suitable solvent resulting in solutions with viscosities low enough for solvent casting. Exact amounts of PEA-III ac Bz and API (Active Pharmaceutical Ingredient) were weighed and dissolved with a suitable solvent. The API payload is determined over the polymer weight. API payload of 10% was used. The API/polymer/solvent formulations were poured into petri dishes (4 cm diameter) and covered to reduce evaporation rates of the solvent and prevent formation of air bubbles. The solvent was evaporated for 2 days at TT in a fumehood followed by 2 days @ 750 mBar, 1 day @ 500 mBar and 2 days at full vacuum. From the resulting films, discs were cut with diameter of 10 mm and approximate thicknesses of 500 μm.
A sample was prepared by dissolving ˜10 mg of material in 1 ml of deuterated THF in a 10 ml glass vial. The sample was allowed sufficient time for complete dissolution. ^1H NMR spectra was recorded on a 300 MHz Bruker Avance 300, ARX 400 NMR instrument.
Stability of Latanoprost in formulations and compatibility with film casting procedure was evaluated by ^1H NMR.

On to `CC(C)OC(=O)CCC/C=C\C[C@@H]1[C@@H](CC[C@@H](O)CCc2ccccc2)[C@H](O)C[C@@H]1O` [Latanoprost], for which the “Stability of Latanoprost (degradation of API) by 1H NMR” value reads like this: (PEA III formulations with Latanoprost stored @ 4° C. for 3 months) “did not indicate any degradation”; (initial PEA III formulations with Latanoprost, after film casting) “did not indicate any degradation”.

Values taken from patent US20140105957A1, “BIS-(ALPHA-AMINO-DIOL-DIESTER) CONTAINING POLYESTERAMIDE FOR OPHTAMOLOGY” (DSM IP ASSETS B.V., priority 2011, published 2014).
